Measured values published in patent publication US7964232B2, “Steviol glycoside isomers” (PepsiCo, Inc., priority 2007, dated 2011).

Experiments:
[1] = Sweetness tasting by a panel of five people, compared with sucrose solution
Method: Iso-rebaudioside A from the x-ray crystallography sample of Example 3 was dissolved in water at a concentration of 1000 ppm, and was found by a panel of five people to have a sweetness intensity similar to that of a 7% sucrose solution; therefore its sweetness potency was estimated to be 70 times that of sucrose.

[2] = Stability/degradation in aqueous citric acid or citrate buffer under heat, followed by HPLC; format: physicochemical
Method: […] reactions were set up under identical conditions as in Example 3 except for temperatures: 43° C., 65° C., 75° C., 85° C., and 90° C. reactions were set up and followed by HPLC-MS or UV (210 nm) detection.
Two studies were performed on the pH dependency of the synthesis of iso-rebaudioside A (Cmpd X) from rebaudioside A (Reb A). Rebaudioside A was dissolved at the same concentration in a series of aqueous citric acid solutions, each having a different pH. The solutions were heated to 43° C. for 11 weeks. One study was performed with solutions at pH 2.0, 4.0, and 7.0. The other study was performed with solutions at pH 2.5, 3.0, and 3.5. Results of the two studies are shown in FIGS. 17 and 18, respectively, wherein Reb A stands for rebaudioside A and Cmpd X stands for iso-rebaudioside A. In FIG. 17, the concentration of iso-rebaudioside A at pH 2 peaks at week 9 and decreases afterwards.

[3] = cited from earlier work; for stability under acidic conditions at 60° C.: pH 2.4 to 2.6, 60° C.; for stability under acidic conditions at 100° C.: pH 2.4 to 2.6, 100° C., yields hydrolysis byproducts

## CC1=CC23CCC4C(C)(C(=O)OC5OC(CO)C(O)C(O)C5O)CCCC4(C)C2CCC1(OC1OC(CO)C(O)C(OC2OC(CO)C(O)C(O)C2O)C1OC1OC(CO)C(O)C(O)C1O)C3 (stereo not shown) [iso-rebaudioside A]
[1]; 1000 ppm in water, panel of five people
  sweetness intensity, equivalent sucrose solution: ~7 % sucrose solution
[1]; estimated from 1000 ppm vs 7% sucrose
  sweetness potency relative to sucrose: 70 times that of sucrose
[2]; pH 2
  degradation in acidic solution: degraded/hydrolyzed into other steviol glycoside isomers
  time of peak concentration before decrease (degradation): 9 week

## C=C1C[C@@]23CC[C@H]4[C@@](C)(CCC[C@@]4(C)C(=O)O[C@@H]4O[C@H](CO)[C@@H](O)[C@H](O)[C@H]4O)[C@@H]2CC[C@]1(O[C@@H]1O[C@H](CO)[C@@H](O)[C@H](O)[C@H]1O[C@@H]1O[C@H](CO)[C@@H](O)[C@H](O)[C@H]1O)C3 [stevioside]
[3]
  stability under acidic conditions at 60° C.: quite stable
  stability under acidic conditions at 100° C.: undergo drastic changes

## C=C1C[C@@]23CC[C@H]4[C@@](C)(CCC[C@@]4(C)C(=O)O[C@@H]4O[C@H](CO)[C@@H](O)[C@H](O)[C@H]4O)[C@@H]2CC[C@]1(O[C@@H]1O[C@H](CO)[C@@H](O)[C@H](O[C@@H]2O[C@H](CO)[C@@H](O)[C@H](O)[C@H]2O)[C@H]1O[C@@H]1O[C@H](CO)[C@@H](O)[C@H](O)[C@H]1O)C3 [rebaudioside A]
[3]
  stability under acidic conditions at 60° C.: quite stable
  stability under acidic conditions at 100° C.: undergo drastic changes
[2]; aqueous citric acid pH 2, 43° C., after week 9
  degradation in acidic solution: continues to decrease after week 9
[2]; citrate buffer pH 2, 43° C. to 90° C., HPLC-MS
  hydrolysis at elevated temperatures: extensive hydrolysis occurred
